{"source": "ChEMBL document CHEMBL4665663", "about": "“Anti-atherosclerosis effect of HS donors based on nicotinic acid and chlorfibrate structures” (Bioorg Med Chem, 2019)", "key": {"RAW264.7 [1]": {"test_system": "RAW264.7", "assay": "Inhibition of macrophage foam cell formation in mouse RAW264.7 cells assessed as reduction in ox-LDL induced red lipid droplets formation at 50 uM preincubated for 10 mins followed by ox-LDL stimulation and measured after 24 hrs by oil red O staining based inverted microscopy analysis", "type": "functional"}, "HUVEC [2]": {"test_system": "HUVEC", "assay": "Anti-atherosclerotic activity against ox-LDL induced apoptosis in human HUVEC cells assessed as increase in bcl-2 expression at 50 uM preincubated for 10 mins followed by ox-LDL stimulation and measured after 24 hrs by ELISA", "type": "functional"}, "RAW264.7 [3]": {"test_system": "RAW264.7", "assay": "Inhibition of macrophage foam cell formation in mouse RAW264.7 cells assessed as reduction in ox-LDL induced red lipid droplets formation preincubated for 10 mins followed by ox-LDL stimulation and measured after 24 hrs by oil red O staining based inverted microscopy analysis", "type": "functional", "settings": "dose microM 10-50, time 10.0 min"}, "RAW264.7 [4]": {"test_system": "RAW264.7", "assay": "Anti-inflammatory activity in mouse RAW264.7 cells assessed as decrease in ox-LDL induced inflammatory reaction by measuring decrease in TNF-alpha production preincubated for 10 mins followed by ox-LDL stimulation and measured after 24 hrs", "type": "functional, cell-based", "settings": "dose microM 10-50, time 10.0 min"}, "HUVEC [5]": {"test_system": "HUVEC", "assay": "Anti-atherosclerotic activity against ox-LDL induced apoptosis in human HUVEC cells assessed as reduction in Bax expression at 10 to 50 uM preincubated for 10 mins followed by ox-LDL stimulation and measured after 24 hrs by ELISA", "type": "functional, cell-based", "settings": "dose microM 10-50, time 10.0 min"}, "RAW264.7 [6]": {"test_system": "RAW264.7", "assay": "Anti-atherosclerotic activity in mouse RAW264.7 cells assessed as decrease in ox-LDL induced AKT protein expression at 10 to 50 uM preincubated for 10 mins followed by ox-LDL stimulation and measured after 24 hrs by Western blot analysis", "type": "functional, cell-based", "settings": "dose microM 10-50, time 10.0 min"}, "RAW264.7 [7]": {"test_system": "RAW264.7", "assay": "Anti-atherosclerotic activity in mouse RAW264.7 cells assessed as decrease in ox-LDL induced NFkappaB protein expression at 10 to 50 uM preincubated for 10 mins followed by ox-LDL stimulation and measured after 24 hrs by Western blot analysis", "type": "functional, cell-based", "settings": "dose microM 10-50, time 10.0 min"}, "HUVEC [8]": {"test_system": "HUVEC", "assay": "Cytoprotective activity against ox-LDL induced cell damage in human HUVEC cells assessed as increase in cell viability at 50 uM preincubated for 10 mins followed by ox-LDL stimulation measured after 24 hrs by MTT assay", "type": "functional, cell-based"}, "RAW264.7 [9]": {"test_system": "RAW264.7", "assay": "Cytotoxicity against mouse RAW264.7 cells assessed as reduction in cell viability after 48 hrs by MTT assay", "type": "cell-based", "settings": "RAW264.7, 48 h"}, "HUVEC [10]": {"test_system": "HUVEC", "assay": "Anti-atherosclerotic activity against ox-LDL induced apoptosis in human HUVEC cells assessed as reduction in caspase-3 expression at 10 to 50 uM preincubated for 10 mins followed by ox-LDL stimulation and measured after 24 hrs by ELISA", "type": "functional, cell-based", "settings": "dose microM 10-50, time 10.0 min"}, "HUVEC [11]": {"test_system": "HUVEC", "assay": "Cytoprotective activity against ox-LDL induced cell damage in human HUVEC cells assessed as cell viability at 100 uM preincubated for 10 mins followed by ox-LDL stimulation measured after 24 hrs by MTT assay (reference value: 73.1%)", "type": "functional", "settings": "read-out: Activity"}, "H9c2": {"test_system": "H9c2", "assay": "Cytotoxicity against rat H9c2 cells assessed as reduction in cell viability after 48 hrs by MTT assay", "type": "cell-based", "settings": "H9c2, 48 h"}, "RAW264.7 [12]": {"test_system": "RAW264.7", "assay": "Antioxidant activity in mouse RAW264.7 cells assessed as reduction in ox-LDL induced ROS accumulation at 10 to 50 uM preincubated for 10 mins followed by ox-LDL stimulation and measured after 24 hrs by DCFH-DA staining based fluorescence microscopic analysis", "type": "functional, cell-based", "settings": "dose microM 10-50, time 10.0 min"}, "[13]": {"assay": "Prodrug release in phosphate buffer containing L-cysteine assessed as H2S release by measuring H2S releasing half-life at 60 uM by methylene blue method", "type": "ADME"}, "RAW264.7 [14]": {"test_system": "RAW264.7", "assay": "Antioxidant activity in mouse RAW264.7 cells assessed as reduction in ox-LDL-induced oxidative stress by measuring increase in SOD level at 50 uM preincubated for 10 mins followed by ox-LDL stimulation and measured after 24 hrs relative to control", "type": "functional", "design": "scale not given: the % may be the effect or the level left"}, "HUVEC [15]": {"test_system": "HUVEC", "assay": "Anti-atherosclerotic activity against ox-LDL induced cell damage in human HUVEC cells assessed as reduction in early apoptotic cells by measuring increase in mitochondrial membrane potential preincubated for 10 mins followed by ox-LDL stimulation and measured after 24 hrs by JC-1 staining based fluorescence microscopic analysis", "type": "functional"}, "HUVEC [16]": {"test_system": "HUVEC", "assay": "Anti-atherosclerotic activity against ox-LDL induced cell damage in human HUVEC cells assessed as reduction in late apoptotic and death cells preincubated for 10 mins followed by ox-LDL stimulation and measured after 24 hrs by PI staining based fluorescence microscopic analysis", "type": "functional"}, "RAW264.7 [17]": {"test_system": "RAW264.7", "assay": "Antioxidant activity in mouse RAW264.7 cells assessed as reduction in ox-LDL induced oxidative stress by measuring decrease in MDA level at 50 uM preincubated for 10 mins followed by ox-LDL stimulation and measured after 24 hrs relative to control", "type": "functional", "settings": "RAW264.7, 10 min"}, "WI-38": {"test_system": "WI-38", "assay": "Cytotoxicity against human WI38 cells assessed as reduction in cell viability after 48 hrs by MTT assay", "type": "cell-based", "settings": "WI-38, 48 h"}, "HUVEC [18]": {"test_system": "HUVEC", "assay": "Anti-atherosclerotic activity against ox-LDL induced cell damage in human HUVEC cells assessed as reduction in nuclear pyknosis and apoptotic bodies formation preincubated for 10 mins followed by ox-LDL stimulation and measured after 24 hrs by Hoechst 33342 staining based fluorescence microscopy", "type": "functional"}, "RAW264.7 [19]": {"test_system": "RAW264.7", "assay": "Anti-atherosclerotic activity in mouse RAW264.7 cells assessed as decrease in ox-LDL induced PI3K protein expression at 10 to 50 uM preincubated for 10 mins followed by ox-LDL stimulation and measured after 24 hrs by Western blot analysis", "type": "functional, cell-based", "settings": "dose microM 10-50, time 10.0 min"}, "RAW264.7 [20]": {"test_system": "RAW264.7", "assay": "Anti-inflammatory activity in mouse RAW264.7 cells assessed as decrease in ox-LDL induced inflammatory reaction by measuring increase in IL-10 production preincubated for 10 mins followed by ox-LDL stimulation and measured after 24 hrs", "type": "functional, cell-based", "settings": "dose microM 10-50, time 10.0 min"}, "RAW264.7 [21]": {"test_system": "RAW264.7", "assay": "(§1) Anti-atherosclerotic activity in mouse RAW264.7 cells assessed as decrease in ox-LDL induced intracellular lipid accumulation by measuring reduction in free cholesterol level at 50 uM preincubated for 10 mins followed by ox-LDL stimulation and measured after 24 hrs by colorimetric method relative to control", "type": "functional", "settings": "RAW264.7, 10 min"}, "HUVEC [22]": {"test_system": "HUVEC", "assay": "Cytotoxicity against human HUVEC cells assessed as reduction in cell viability after 48 hrs by MTT assay", "type": "cell-based"}, "HUVEC [23]": {"test_system": "HUVEC", "assay": "Cytotoxicity against human HUVEC cells assessed as reduction in cell viability at 10 to 100 uM by MTT assay", "type": "cell-based", "settings": "dose 10-100 µM"}, "RAW264.7 [24]": {"test_system": "RAW264.7", "assay": "Anti-atherosclerotic activity in mouse RAW264.7 cells assessed as decrease in ox-LDL induced intracellular lipid accumulation by measuring reduction in CE/TC ratio at 50 uM preincubated for 10 mins followed by ox-LDL stimulation and measured after 24 hrs by colorimetric method relative to control", "type": "functional", "settings": "RAW264.7, 10 min"}, "RAW264.7 [25]": {"test_system": "RAW264.7", "assay": "as §1, with “total” for “free”", "type": "functional", "settings": "RAW264.7, 10 min"}}, "note": "pIC50: −log10 of the molar value. The source made the active and inactive calls. The rule behind the calls is not given here."}
{"molecule": "CC(C)(Oc1ccc(Cl)cc1)C(=O)OCCCOC(=O)CCCCC1CCSS1", "note": "(configuration not stated)", "values": [{"measurement": "inhibition", "setting": "RAW264.7 [1]", "value": "Active"}, {"measurement": "Activity", "setting": "HUVEC [2]", "value": 31.9, "unit": "%"}, {"measurement": "inhibition", "setting": "RAW264.7 [3]", "value": "Dose-dependent effect"}, {"measurement": "Activity", "setting": "RAW264.7 [4]", "value": "Dose-dependent effect"}, {"measurement": "Activity", "setting": "HUVEC [5]", "value": "Active"}, {"measurement": "Activity", "setting": "RAW264.7 [6]", "value": "Active"}, {"measurement": "Activity", "setting": "RAW264.7 [7]", "value": "Active"}, {"measurement": "Activity", "setting": "HUVEC [8]", "value": "Active"}, {"measurement": "pIC50", "setting": "RAW264.7 [9]", "value": "< 3.10"}, {"measurement": "Activity", "setting": "HUVEC [10]", "value": "Active"}, {"measurement": "viability at 100 µM", "setting": "HUVEC [11]", "value": 89.2, "unit": "%"}, {"measurement": "pIC50", "setting": "H9c2", "value": "< 3.10"}, {"measurement": "Activity", "setting": "RAW264.7 [12]", "value": "Active"}, {"measurement": "t1/2", "setting": "[13]", "value": 21.3, "unit": "min"}, {"measurement": "Activity", "setting": "RAW264.7 [14]", "value": 45.4, "unit": "%"}, {"measurement": "Activity", "setting": "HUVEC [15]", "value": "Active"}, {"measurement": "Activity", "setting": "HUVEC [16]", "value": "Active"}, {"measurement": "inhibition at 50 µM", "setting": "RAW264.7 [17]", "value": 41, "unit": "%"}, {"measurement": "pIC50", "setting": "WI-38", "value": "< 3.10"}, {"measurement": "Activity", "setting": "HUVEC [18]", "value": "Active"}, {"measurement": "Activity", "setting": "RAW264.7 [19]", "value": "Active"}, {"measurement": "Activity", "setting": "RAW264.7 [20]", "value": "Dose-dependent effect"}, {"measurement": "inhibition at 50 µM", "setting": "RAW264.7 [21]", "value": 25.4, "unit": "%"}, {"measurement": "pIC50", "setting": "HUVEC [22]", "value": "< 3.10"}, {"measurement": "Activity", "setting": "HUVEC [23]", "value": "Non-Toxic"}, {"measurement": "inhibition at 50 µM", "setting": "RAW264.7 [24]", "value": 30.9, "unit": "%"}, {"measurement": "inhibition at 50 µM", "setting": "RAW264.7 [25]", "value": 52.4, "unit": "%"}]}
